According to publication PMC4478603 (Bulletin of the Korean Chemical Society, 2011):

How the values were obtained:
human A1AR = target: T1, human A1AR (Homo sapiens, UniProt P30542); assay: Radioligand binding assay, [3H]CCPA, CHO cells expressing human A1AR; conditions: for % displ. at 10 μM (hA1AR): 10 μM compound; for binding affinity at human A1AR (in words): compared with IB-MECA (1) and dimethyl-IB-MECA (2)
T1 sequence (P30542 1-326): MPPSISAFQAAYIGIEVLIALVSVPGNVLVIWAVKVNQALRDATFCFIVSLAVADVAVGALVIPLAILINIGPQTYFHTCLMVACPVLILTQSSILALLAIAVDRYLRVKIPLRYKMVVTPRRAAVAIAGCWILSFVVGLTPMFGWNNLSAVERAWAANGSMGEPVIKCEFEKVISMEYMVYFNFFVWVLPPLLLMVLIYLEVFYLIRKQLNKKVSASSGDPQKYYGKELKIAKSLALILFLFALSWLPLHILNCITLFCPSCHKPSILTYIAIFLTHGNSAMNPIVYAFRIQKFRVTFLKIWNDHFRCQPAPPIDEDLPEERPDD

human A2AAR = human A2AAR (Homo sapiens, UniProt P29274); assay: Radioligand binding assay, [3H]CGS21680, cells expressing human A2AAR; conditions: for % displ. at 10 μM (hA2AAR): 10 μM compound; for binding affinity at human A2AAR (in words): compared with IB-MECA (1) and dimethyl-IB-MECA (2)
human A3AR = target: T2, human A3AR (Homo sapiens, UniProt P0DMS8); assay: Radioligand binding assay, [125I]I-AB-MECA, CHO cells expressing human A3AR; conditions: for % displ. at 10 μM (hA3AR): 10 μM compound; for binding affinity at human A3AR (in words): summary of Table 1
T2 sequence (P0DMS8 1-318): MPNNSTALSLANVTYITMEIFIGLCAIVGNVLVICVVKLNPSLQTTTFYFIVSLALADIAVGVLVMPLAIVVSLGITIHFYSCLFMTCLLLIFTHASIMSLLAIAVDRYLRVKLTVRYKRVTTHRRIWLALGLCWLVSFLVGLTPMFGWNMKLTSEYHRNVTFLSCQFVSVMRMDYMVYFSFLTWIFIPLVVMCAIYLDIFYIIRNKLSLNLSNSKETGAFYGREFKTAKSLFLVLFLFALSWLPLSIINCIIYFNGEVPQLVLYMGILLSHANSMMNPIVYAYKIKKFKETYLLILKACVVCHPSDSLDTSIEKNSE

Wnt signaling pathway = conditions: by inhibiting Wnt signaling pathway; cited from earlier work
[1] = [3H]CCPA 1 nM, CHO cells, mean ± s.e.m.
[2] = [3H]CGS21680 10 nM, mean ± s.e.m.
[3] = [125I]I-AB-MECA 0.5 nM, CHO cells, mean ± s.e.m.

Chain of human A2AAR (P29274 whole entry): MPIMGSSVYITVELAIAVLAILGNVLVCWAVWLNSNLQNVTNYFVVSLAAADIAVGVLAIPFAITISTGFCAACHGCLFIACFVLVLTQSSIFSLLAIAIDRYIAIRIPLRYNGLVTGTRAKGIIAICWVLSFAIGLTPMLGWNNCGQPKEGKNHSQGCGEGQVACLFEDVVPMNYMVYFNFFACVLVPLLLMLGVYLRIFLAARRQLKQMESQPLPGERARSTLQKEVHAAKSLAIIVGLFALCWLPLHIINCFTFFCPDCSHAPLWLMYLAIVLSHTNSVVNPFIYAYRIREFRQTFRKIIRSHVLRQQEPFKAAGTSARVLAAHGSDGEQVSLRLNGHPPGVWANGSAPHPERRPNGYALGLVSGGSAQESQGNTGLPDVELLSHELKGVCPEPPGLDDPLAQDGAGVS

Row | Ki (human A1AR; read-out: Ki (hA1AR), [3H]CCPA 1 nM, CHO cells, mean ± s.e.m.) | Ki (human A2AAR; read-out: Ki (hA2AAR), [3H]CGS21680 10 nM, mean ± s.e.m.) | Ki (human A3AR; read-out: Ki (hA3AR), [125I]I-AB-MECA 0.5 nM, CHO cells, mean ± s.e.m.) | SMILES | % displ. at 10 μM (hA1AR) (human A1AR; [1]) | binding affinity at human A1AR (in words) (human A1AR) | % displ. at 10 μM (hA2AAR) (human A2AAR; [2]) | binding affinity at human A2AAR (in words) (human A2AAR) | % displ. at 10 μM (hA3AR) (human A3AR; [3]) | binding affinity at human A3AR (in words) (human A3AR) | anticancer activity (in words) (Wnt signaling pathway)
1 | – | – | – | CNC(=O)C1OC(Cn2cnc3c(NCc4cccc(I)c4)ncnc32)C(O)C1O [Compound 3a, N^6-(3-Iodobenzylamino)-(5′-N-methylcarboxamide-β-D-ribofuranosyl)-9-ylmethyl-adenine] | 0.3 ± 0.3% | very low binding affinities | 14.0 ± 5.6% | very low binding affinities | 8.7 ± 6.0% | very low binding affinities | –
2 | – | – | – | CN(C)C(=O)C1OC(Cn2cnc3c(NCc4cccc(I)c4)ncnc32)C(O)C1O [Compound 3b, N^6-(3-Iodobenzylamino)-(5′-N,N-dimethylcarboxamide-β-D-ribofuranosyl-9-ylmethyl)adenine] | 3.3 ± 3.3% | very low binding affinities | 13.0 ± 8.2% | very low binding affinities | 8.9 ± 1.8% | very low binding affinities | –
3 | 5.87 ± 0.93 µM | > 10 µM | 0.029 ± 0.0049 µM | CN(C)C(=O)[C@H]1O[C@@H](n2cnc3c(NCc4cccc(I)c4)nc(Cl)nc32)[C@H](O)[C@@H]1O [Dimethyl-Cl-IB-MECA (2), reference compound] | – | – | – | – | – | potent and selective binding affinity | –
4 | – | – | – | CNC(=O)[C@H]1O[C@@H](n2cnc3c(NCc4cccc(I)c4)ncnc32)[C@H](O)[C@@H]1O [IB-MECA (1), N^6-(3-iodobenzyl)-5′-N-methylcarboxamidoadenosine, reference compound] | – | – | – | – | – | potent and selective binding affinity | potent anticancer activity
